According to patent US11505543B2, “4-oxo-3,4-dihydroquinazoline compounds as inhibitors of human immunodeficiency virus replication” (VIIV HEALTHCARE UK (NO.5) LIMITED, priority 2018, dated 2022):

What was measured:
[1] = tested on: recombinant NL4-3 virus (nef section replaced with Renilla luciferase gene) in MT-2 cells; assay: HIV cell culture assay (antiviral activity, luciferase readout); assay type: cell-based; settings: Renilla, NL43, MT-2 cells infected for 4-5 days with recombinant NL4-3 Renilla luciferase virus, serial dilutions of compound
Outline: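 Test compound in serial dilution was present while MT-2 cells were infected for 4–5 days with recombinant NL4-3 virus made in 293T cells. Antiviral activity was quantified as Renilla luciferase activity, read with a live-cell substrate. EC50 came from the median-effect equation.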

[2] = Compound cytotoxicity, XTT-based colorimetric assay; assay type: cell-based; settings: human, uninfected MT2 cells, day 4, XTT
Outline: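 Run under the antiviral-assay protocol but without virus. Viability was read on day 4 and CC50 values were derived from the readout.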

**Q.** Which results are given for Cc1cc(Cl)ccc1-c1ccc2c(=O)n(-c3ccc(Cl)c4c(NS(C)(=O)=O)nn(C)c34)c([C@H](Cc3cc(F)cc(F)c3)NC(=O)Cn3nc(C(F)F)c4c3C(F)(F)[C@@H]3C[C@H]43)nc2c1 (atropisomer, axis not shown; (aR)) [Example 90]?
**A.** EC50 [1]: 5.7 nM; CC50 at 4 day [2]: > 1000 nM

**Q.** What does the source list for Cn1nc(NS(C)(=O)=O)c2c(Cl)ccc(-n3c([C@H](Cc4cc(F)cc(F)c4)NC(=O)Cn4nc(C(F)F)c5c4C(F)(F)[C@@H]4C[C@H]54)nc4cc(-c5ccc(S(=O)(=O)N6CCOCC6)cc5)ccc4c3=O)c21 (atropisomer, axis not shown; (aR)) [Example 91, N-((S)-1-(3-(4-chloro-1-methyl-3-(methylsulfonamido)-1H-indazol-7-yl)-7-(4-(morpholinosulfonyl)phenyl)-4-oxo-3,4-dihydroquinazolin-2-yl)-2-(3,5-difluorophenyl)ethyl)-2-((3bS,4aR)-3-(difluoromethyl)-5,5-difluoro-3b,4,4a,5-tetrahydro-1H-cyclopropa[3,4]cyclopenta[1,2-c]pyrazol-1-yl)acetamide]?
**A.** EC50 [1]: 0.39 nM; CC50 at 4 day [2]: > 1000 nM

**Q.** Which EC50 [1] does the source give for Cc1noc(C)c1-c1ccc2c(=O)n(-c3ccc(Cl)c4c(NS(C)(=O)=O)nn(C)c34)c([C@H](Cc3cc(F)cc(F)c3)NC(=O)Cn3nc(C(F)F)c4c3C(F)(F)[C@@H]3C[C@H]43)nc2c1 (atropisomer, axis not shown; (aR)) [Example 94, N-((S)-1-(3-(4-chloro-1-methyl-3-(methylsulfonamido)-1H-indazol-7-yl)-7-(3,5-dimethylisoxazol-4-yl)-4-oxo-3,4-dihydroquinazolin-2-yl)-2-(3,5-difluorophenyl)ethyl)-2-((3bS,4aR)-3-(difluoromethyl)-5,5-difluoro-3b,4,4a,5-tetrahydro-1H-cyclopropa[3,4]cyclopenta[1,2-c]pyrazol-1-yl)acetamide] here?
**A.** 0.44 nM

**Q.** And the CC50 at 4 day [2]?
**A.** > 1000 nM

**Q.** What does the source list for Cn1nc(NS(C)(=O)=O)c2c(Cl)ccc(-n3c([C@H](Cc4cc(F)cc(F)c4)NC(=O)Cn4nc(C(F)F)c5c4C(F)(F)[C@@H]4C[C@H]54)nc4cc(-c5cnccc5F)ccc4c3=O)c21 (atropisomer, axis not shown; (aR)) [Example 96, N-((S)-1-(3-(4-chloro-1-methyl-3-(methylsulfonamido)-1H-indazol-7-yl)-7-(4-fluoropyridin-3-yl)-4-oxo-3,4-dihydroquinazolin-2-yl)-2-(3,5-difluorophenyl)ethyl)-2-((3bS,4aR)-3-(difluoromethyl)-5,5-difluoro-3b,4,4a,5-tetrahydro-1H-cyclopropa[3,4]cyclopenta[1,2-c]pyrazol-1-yl)acetamide]?
**A.** EC50 [1]: 0.076 nM; CC50 at 4 day [2]: > 1000 nM

**Q.** Which results are given for Cn1nc(NS(C)(=O)=O)c2c(Cl)ccc(-n3c([C@H](Cc4cc(F)cc(F)c4)NC(=O)Cn4nc(C(F)F)c5c4C(F)(F)[C@@H]4C[C@H]54)nc4cc(-c5ccc(F)c(C#N)c5)ccc4c3=O)c21 (atropisomer, axis not shown; (aR)) [Example 97, N-((S)-1-(3-(4-chloro-1-methyl-3-(methylsulfonamido)-1H-indazol-7-yl)-7-(3-cyano-4-fluorophenyl)-4-oxo-3,4-dihydroquinazolin-2-yl)-2-(3,5-difluorophenyl)ethyl)-2-((3bS,4aR)-3-(difluoromethyl)-5,5-difluoro-3b,4,4a,5-tetrahydro-1H-cyclopropa[3,4]cyclopenta[1,2-c]pyrazol-1-yl)acetamide]?
**A.** EC50 [1]: 0.4 nM; CC50 at 4 day [2]: > 1000 nM

**Q.** With Cn1nc(NS(C)(=O)=O)c2c(Cl)ccc(-n3c([C@H](Cc4cc(F)cc(F)c4)NC(=O)Cn4nc(C(F)F)c5c4C(F)(F)[C@@H]4C[C@H]54)nc4cc(-c5ccc(F)c(CO)c5)ccc4c3=O)c21 (atropisomer, axis not shown; (aR)) [Example 98, N-((S)-1-(3-(4-chloro-1-methyl-3-(methylsulfonamido)-1H-indazol-7-yl)-7-(4-fluoro-3-(hydroxymethyl)phenyl)-4-oxo-3,4-dihydroquinazolin-2-yl)-2-(3,5-difluorophenyl)ethyl)-2-((3bS,4aR)-3-(difluoromethyl)-5,5-difluoro-3b,4,4a,5-tetrahydro-1H-cyclopropa[3,4]cyclopenta[1,2-c]pyrazol-1-yl)acetamide] as the compound, how does the EC50 [1] read?
**A.** 0.39 nM

**Q.** And the CC50 at 4 day [2]?
**A.** > 1000 nM

**Q.** With Cn1nc(NS(C)(=O)=O)c2c(Cl)ccc(-n3c([C@H](Cc4cc(F)cc(F)c4)NC(=O)Cn4nc(C(F)F)c5c4C(F)(F)[C@@H]4C[C@H]54)nc4cc(-c5cc(F)ccc5F)ccc4c3=O)c21 (atropisomer, axis not shown; (aR)) [Example 99, N-((S)-1-(3-(4-chloro-1-methyl-3-(methylsulfonamido)-1H-indazol-7-yl)-7-(2,5-difluorophenyl)-4-oxo-3,4-dihydroquinazolin-2-yl)-2-(3,5-difluorophenyl)ethyl)-2-((3bS,4aR)-3-(difluoromethyl)-5,5-difluoro-3b,4,4a,5-tetrahydro-1H-cyclopropa[3,4]cyclopenta[1,2-c]pyrazol-1-yl)acetamide] as the compound, how does the EC50 [1] read?
**A.** 0.68 nM

**Q.** What about the CC50 at 4 day [2] of the same compound?
**A.** > 1000 nM

**Q.** For Cn1nc(NS(C)(=O)=O)c2c(Cl)ccc(-n3c([C@H](Cc4cc(F)cc(F)c4)NC(=O)Cn4nc(C(F)F)c5c4C(F)(F)[C@@H]4C[C@H]54)nc4cc(-c5ccc(C(=O)O)cc5)ccc4c3=O)c21 (atropisomer, axis not shown; (aR)) [Example 100, 4-(3-(4-chloro-1-methyl-3-(methylsulfonamido)-1H-indazol-7-yl)-2-((S)-1-(2-((3bS,4aR)-3-(difluoromethyl)-5,5-difluoro-3b,4,4a,5-tetrahydro-1H-cyclopropa[3,4]cyclopenta[1,2-c]pyrazol-1-yl)acetamido)-2-(3,5-difluorophenyl)ethyl)-4-oxo-3,4-dihydroquinazolin-7-yl)benzoic acid], which EC50 [1] is on record?
**A.** 6.5 nM

**Q.** What about the CC50 at 4 day [2] of the same compound?
**A.** > 1000 nM

**Q.** With Cn1nc(NS(C)(=O)=O)c2c(Cl)ccc(-n3c([C@H](Cc4cc(F)cc(F)c4)NC(=O)Cn4nc(C(F)F)c5c4C(F)(F)[C@@H]4C[C@H]54)nc4cc(-c5ccc(-c6ccccc6)cc5)ccc4c3=O)c21 (atropisomer, axis not shown; (aR)) [Example 101, N-((S)-1-(7-([1,1′-biphenyl]-4-yl)-3-(4-chloro-1-methyl-3-(methylsulfonamido)-1H-indazol-7-yl)-4-oxo-3,4-dihydroquinazolin-2-yl)-2-(3,5-difluorophenyl)ethyl)-2-((3bS,4aR)-3-(difluoromethyl)-5,5-difluoro-3b,4,4a,5-tetrahydro-1H-cyclopropa[3,4]cyclopenta[1,2-c]pyrazol-1-yl)acetamide] as the compound, how does the EC50 [1] read?
**A.** 62 nM

**Q.** And the CC50 at 4 day [2]?
**A.** > 1000 nM

**Q.** With Cn1nc(NS(C)(=O)=O)c2c(Cl)ccc(-n3c([C@H](Cc4cc(F)cc(F)c4)NC(=O)Cn4nc(C(F)F)c5c4C(F)(F)[C@@H]4C[C@H]54)nc4cc(-c5cc(F)cc(F)c5)ccc4c3=O)c21 (atropisomer, axis not shown; (aR)) [Example 103, N-((S)-1-(3-(4-chloro-1-methyl-3-(methylsulfonamido)-1H-indazol-7-yl)-7-(3,5-difluorophenyl)-4-oxo-3,4-dihydroquinazolin-2-yl)-2-(3,5-difluorophenyl)ethyl)-2-((3bS,4aR)-3-(difluoromethyl)-5,5-difluoro-3b,4,4a,5-tetrahydro-1H-cyclopropa[3,4]cyclopenta[1,2-c]pyrazol-1-yl)acetamide] as the compound, how does the EC50 [1] read?
**A.** 0.88 nM

**Q.** And the CC50 at 4 day [2]?
**A.** > 1000 nM
